SMILES strings stand for the structures. “Also recorded” adds a separate entry of the source. Where two headings read alike, the source gives them in different places.

What all share (assay type): cell-based, human
In one test the test system is SF3A1. The test is described as follows: qPCR splicing analysis, SF3A1 intron retention. The conditions noted are these: for SF3A1 intron 6 retention (level of intron retention): HCT116, 4 h, 20 times GI50, qPCR relative to GAPDH. The method, then: (§1) HCT116 tumor cells were treated with each analogue at 20 times the G150 value (Table 12) for 4 hours and then cellular RNA was isolated and purified for qPCR. Primers were designed to evaluate intron retention or exon skipping, direct responses to splice modulator treatment. Genes evaluated included those involved in splicing regulation (SF3A1, SF3A3, SF3B1, SF3B2), apoptosis (MCL-1L), protein folding (DNAJB1), and cell cycle regulation (AURKA, PLK-1) relative to the unspliced control GAPDH. For alternative splicing regulator (SF2), primers were designed to evaluate gene expression, which changes in response splice modulator treatment for SF2 relative to the unspliced control GAPDH. (−) denotes untreated cells.
as §1, with “analogues” for “each analogue”, “100 nM (light grey), 250 nM (grey), or 500 nM (black)” for “20 times the G150 value (Table 12)”, “24 h” for “4 hours”, “(MCL-1L), and” for “(MCL-1L),”, “(DNAJB1),” for “(DNAJB1), and cell cycle regulation (AURKA, PLK-1)”, “(—)” for “(−)”
(§2) Next, we turned our efforts to explore the ability of these analogues to modulate splicing. […] We treated cells for 4 h so that we could evaluate early changes in splicing activity, and then cellular RNA was isolated and purified for analyses by qPCR (FIG. 14). Most importantly, none of the concentrations tested led to significant changes in cell viability, ensuring that changes in gene expression were not due to cell death.
(§3) For these studies, we evaluated the expression of genes involved in splicing regulation (SF3A1, SF3A3, SF3B1, SF3B2), apoptosis (MCL-1L), protein folding (DNAJB1), and cell cycle regulation (AURKA, PLK-1) relative to the unspliced control GAPDH. Primers were designed to evaluate intron retention or exon skipping, direct responses to splice modulator treatment. The master splicing regulator alternative splicing factor (SF2) was also evaluated, with the primers for this gene designed to evaluate overall gene expression, which changes in response to splice modulator treatment.
(§4) From this 4 h study (FIG. 14), a small set of analogs (1, 1b, 1g, 1d, 1e, 1i and 1j) were selected to evaluate if effects on splicing when presented for a longer 24 h period. […] Using identical procedures as that used for 4 h, HCT116 cells were treated with three concentrations (100 nM, 250 nM and 500 nM) of each analog for 24 h. Multiple concentrations were used as a means to check further validate the use of the GI50 concentration in our prior study (FIG. 14). As before, none of the concentrations tested led to significant changes in cell viability over the 24-hour time window, ensuring that changes in gene expression were not due to cell death.
(§5) Cells were treated with 1 or 1a-1j in media (McCoy's 5a (Life Technologies) supplemented with 10% FBS, 2 mM L-glutamine, and 100 U mL^−1 of penicillin and 100 μg mL^−1 of streptomycin 0.5% DMSO) for 4 h or 24 h. Untreated cells were considered were used as negative control. Total RNA was isolated using mirVana miRNA isolation kit (Life Technologies). A 1 μg sample of RNA was subjected to DNAseI from a TURBO DNA free kit (Life Technologies). The cDNA was prepared by using SuperScript III reverse transcriptase kit (Life Technologies). […]

Test [1] relates to HCT116 colorectal carcinoma cells. The test is described as follows: MTS cell viability / cell growth inhibition assay. The conditions noted are these: for GI50: Homo sapiens, HCT-116, 72 h. As to the method: With milligram quantities of 1a-1i at hand, we began our studies to evaluate the relative efficacy of each analogue using cell growth inhibition studies in HCT116 colorectal carcinoma cells. As reported in FIG. 3, GI50 values were collected for each analog after a 72 h treatment using the MTS cell viability assay (Table 12). Under these conditions, the natural FD-895 (1), 3S-FD-895 (1a) 17S-FD-895 (1d), 17-methoxy-FD-895 (1e) provided activities of <10 nM.
HCT-116 cells was cultured in McCoy's 5a (Life Technologies) supplemented with 10% fetal bovine serum (FBS), 2 mM L-glutamine, and 100 U mL^−1 of penicillin and 100 μg mL^−1 of streptomycin at 37° C. in an atmosphere of 5% CO2. Compounds were dissolved in DMSO (MilliporeSigma). Cells were treated with 1-1j in media with ≥0.5% DMSO for 4-72 h.
Studies were conducted in […] cell culture plates. HCT-116 plated at 5×10^3 cells/well were cultured for 24 h and then treated with analogs 1-1j for 4-72 h, then washed twice with 100 μL PBS. PBS (100 μL) was added to each well, followed by 20 μL of CellTiter Aqueous One Solution (Promega). After 2 h at 37° C., absorbance readings were taken at 490 nm (test wavelength) and 690 nm (reference wavelength). GI50 values were calculated in Prism (GraphPad) using greater 3 replicates.
Cells were treated with 1 or 1a-1j in media (McCoy's 5a (Life Technologies) supplemented with 10% FBS, 2 mM L-glutamine, and 100 U mL^−1 of penicillin and 100 μg mL^−1 of streptomycin 0.5% DMSO) for 4 h or 24 h. Untreated cells were considered were used as negative control. Total RNA was isolated using mirVana miRNA isolation kit (Life Technologies). A 1 μg sample of RNA was subjected to DNAseI from a TURBO DNA free kit (Life Technologies). The cDNA was prepared by using SuperScript III reverse transcriptase kit (Life Technologies). The amount of unspliced RNA for different genes was determined using Power SYBR Green PCR master mix (Applied Biosystems) by qPCR using specific primers for each gene. qPCR using 2.5 μM of each primer was performed on 5 ng of the obtained cDNA. qPCR conditions were as follows: 95° C. for 10 min for one cycle, then 95° C. for 10 min for one cycle, then 95° C. for 30 s, 55° C. for 60 s, 72° C. for 60 s, for 40 cycles using the MXPro. Quantification cycle (Cq) values were identified for each sample, and then RNA levels were calculated using 2-ΔΔCT method. GAPDH was used as a control for normalization. At least three replicates were conducted for each compound. Namely, all genes explored in this study were evaluated from the same cell cultures. Here, individual cultures were used for each compound explored and at least three replicates were used for each compound. While experimental variation occurred between the different compound treatments, the levels of the different intron retention, exon skipping or RNA expression were collected from the same cellular material. Statistics were calculated using a standard one-way ANOVA; p values were represented so that * signifies p<0.0001. HCT116 were treated with analogs 1-1j ranging from 0.1-5000 nM for 72 hours, then cell viability was measured using the MTS assay. GI50 values and confidence intervals were calculated using GraphPad (Table 12).

Another test deals with SF3B2. As to the kind of experiment: qPCR splicing analysis, SF3B2 intron retention. The conditions noted are these: for SF3B2 intron retention (level of intron retention): HCT116, 4 h, 20 times GI50, qPCR relative to GAPDH; for SF3B2 intron retention: HCT116, 24 h, 100, 250, 500 nM, compared to 1. As to the method:
as §1
as §1, with “analogues” for “each analogue”, “100 nM (light grey), 250 nM (grey), or 500 nM (black)” for “20 times the G150 value (Table 12)”, “24 h” for “4 hours”, “(MCL-1L), and” for “(MCL-1L),”, “(DNAJB1),” for “(DNAJB1), and cell cycle regulation (AURKA, PLK-1)”, “(—)” for “(−)”
as §2, §3, §4, §5

On to `CC[C@H](OC)[C@@H](C)[C@H]1O[C@@H]1[C@@H](O)[C@H](C)/C=C/C=C(\C)[C@H]1OC(=O)C[C@H](O)CC[C@@](C)(O)[C@@H](OC(C)=O)/C=C/[C@@H]1C` [Analog 1d, 17S-FD-895], for which, in the test on SF3A1 (HCT116, 24 h, 100, 250, 500 nM, compared to 1), the SF3A1 intron retention entry is “concentration dependent increased intron retention”. In test [1] (HCT-116 cells), the “cell growth inhibitory activity compared to FD-895” value is on record as “retained potency; also recorded: comparable inhibitor of cell growth as 1”. Also, in test [1] (read-out: GI50 value), the GI50 came out at 2.06 nM. Also, the GI50 in test [1] (read-out: GI50 value (text)) was less than 10 nM. In addition, in the test on SF3B2, the “SF3B2 intron retention (level of intron retention)” value is on record as “improved efficacy” and the SF3B2 intron retention entry was “concentration dependent increased intron retention”.

For the molecule `CC[C@H](OC)[C@@H](C)[C@H]1O[C@@H]1[C@@H](O)[C@H](C)/C=C/C=C(\C)[C@H]1OC(=O)C[C@@H](O)CC[C@@](C)(O)[C@@H](OC(C)=O)/C=C/[C@@H]1C` [Analog 1g, 3S,17S-FD-895], the “fold less effective compared to 1a or 1d” value in test [1] (HCT116 GI50, compared to 1a or 1d) is 60 fold. Besides, the “fold less active (GI50) than 1” value in test [1] (HCT116 cell growth inhibition, compared to 1) is 75 fold. The figures for the GI50 in test [1] (read-out: GI50 value) and in test [1] (read-out: GI50 value (text)) were 131 nM and 130 nM, respectively. For the same molecule, the SF3B2 intron retention entry in the test on SF3B2 is reported as “loss in intron retention”.

Turning to `CC[C@H](OC)[C@@H](C)[C@@H]1O[C@H]1[C@@H](O)[C@H](C)/C=C/C=C(\C)[C@H]1OC(=O)C[C@H](O)CC[C@@](C)(O)[C@@H](OC(C)=O)/C=C/[C@@H]1C` [Analog 1i, 17S,18S,19S-FD-895], the “SF3A1 intron 6 retention (level of intron retention)” value in the test with SF3A1 was “more effective than 1”. Besides, the GI50 in test [1] (read-out: GI50 value) turned out to be 446 nM; in test [1] (read-out: GI50 value (text)) it was 450 nM. In addition, in the test on SF3B2, the “SF3B2 intron retention (level of intron retention)” value is recorded as “improved efficacy”.

In the case of `CC[C@@H](OC)[C@H](C)[C@H]1O[C@@H]1[C@@H](O)[C@H](C)/C=C/C=C(\C)[C@H]1OC(=O)C[C@H](O)CC[C@@](C)(O)[C@@H](OC(C)=O)/C=C/[C@@H]1C` [Analog 1j, 17S,20S,21R-FD-895], the “SF3A1 intron 6 retention (level of intron retention)” value in the test on SF3A1 is “more effective than 1”. In addition, the GI50 is 262 nM in test [1] (read-out: GI50 value) and 260 nM in test [1] (read-out: GI50 value (text)). The “SF3B2 intron retention (level of intron retention)” value with SF3B2 is recorded as “improved efficacy”.

(Values after patent US12172988B2, “Anticancer and antifungal splice modulators” (priority 2021, dated 2024).)
